The source of these data is patent publication US20070066616A1, “Inhibitors for extracellular signal-regulated kinase docking domains and uses therefor” (priority 2005, published 2007).

Assay [1] deals with HeLa, A549, or SUM-159 cells. The assay can be described thus: Colony formation assay, screen of test compounds (FIG. 7A). In kind it is cell-based, human. Also noted: dose or concentration left out as unconfirmed. To be noted: FIG. 7A screen as printed. How it is done:
HeLa, A549, or SUM-159 cells were plated at a low density of ˜200-400 cells per well in the absence or presence of putative ERK docking domain inhibitors. Cell colonies were stained with crystal violet and counted after 6-10 days. In FIG. 7A cells were grown on 10 cm plates in the absence (−) or presence of 100 mM of compound 67, 36, 68, 81, or 76. Colony formation dose response in the presence of the indicated concentrations of compound 76 or 81 for Hela cells […] (FIG. 7B), A549 cells (50 mM) (FIG. 7C), or SUM-159 cells (50 mM) (FIG. 7D).
(§1) Trypsinized cells were plated on 12 or 24 well plates at low densities (200-400 cells per well) in the absence (DMSO only) or presence of test compounds. In additional experiments, cells were first allowed to adhere to the culture dishes for 16 hours prior to treatment with test compounds. The treated cells received a single dose of the test compounds at the beginning of the experiments. The control and treated cells were grown for 8-14 days to allow the formation of colonies. Cells then were fixed for 10 minutes in 4% paraformaldehyde and stained with 0.2% crystal violet (in 20% methanol) for 1-2 minutes. Following several washes with distilled water, the colonies (containing at least 40 cells) were counted. Each individual experiment was repeated on at least 3 separate occasions.
The effects of the active compounds on cell proliferation and survival were tested using a colony formation assay.

In the next assay the target is T1, ERK2 T157A (Mus musculus, UniProt P63085, T157A).
T1 construct: (His)x6; made in house; host or cells: bacteria (as described for ERK2 in general; not repeated for the mutant)
The assay can be described thus: Fluorescence titration with ERK2 point mutant T157A (ED domain). Type of assay: binding. To be noted: fluorescence quenching. How it is done: Direct binding interactions between ERK2 and the biologically active compounds is determined using fluorescence spectroscopy (47). Experiments measure the changes in the intrinsic ERK2 fluorescence due to the presence of aromatic amino acids, with the indole group of tryptophan being the major fluorophore with absorption and emission maxima around 280 and 340 nanometers (nm), respectively. Fluorescence spectra were recorded with a Luminescence Spectrometer LS50 (Perkin Elmer, Boston, Mass.). For all experiments, ERK2 protein was diluted into 20 mM Tris-HCl, pH 7.5. Titrations were performed by increasing the test compound concentration while maintaining the ERK2 protein concentration at 3 μM.
Unphosphorylated and phosphorylated ERK2 typically are incubated with […] of the biologically active compounds and the fluorescence intensity is measured. If necessary, higher inhibitor concentrations are used to saturate fluorescence quenching. The excitation wavelength was 295 nm and fluorescence was monitored from 300 to 500 nm. All reported fluorescence intensities are relative values and are not corrected for wavelength variations in detector response. […] Because the test compounds contain aromatic structures, the emission spectra of the active compounds in the absence of ERK2 is be determined. […]

Assay [2] deals with SUM-159 estrogen-receptor negative breast cancer cell line. As to the kind of experiment: Cell proliferation, SUM-159 cells. Type of assay: cell-based, human. How it is done:
HeLa, A549, or SUM-159 cells were plated at a low density of ˜200-400 cells per well in the absence or presence of putative ERK docking domain inhibitors. Cell colonies were stained with crystal violet and counted after 6-10 days. In FIG. 7A cells were grown on 10 cm plates in the absence (−) or presence of 100 mM of compound 67, 36, 68, 81, or 76. Colony formation dose response in the presence of the indicated concentrations of compound 76 or 81 for Hela cells (100 mM) (FIG. 7B), A549 cells (50 mM) (FIG. 7C), or SUM-159 cells (50 mM) (FIG. 7D).
as §1

Assay [3] has as its system HT1080 fibrosarcoma cells. As to the kind of experiment: Cell proliferation, HT1080 cells. In kind it is cell-based, human. The note with it: data not shown. How it is done:
as §1

T1 sequence (P63085 whole entry T157A): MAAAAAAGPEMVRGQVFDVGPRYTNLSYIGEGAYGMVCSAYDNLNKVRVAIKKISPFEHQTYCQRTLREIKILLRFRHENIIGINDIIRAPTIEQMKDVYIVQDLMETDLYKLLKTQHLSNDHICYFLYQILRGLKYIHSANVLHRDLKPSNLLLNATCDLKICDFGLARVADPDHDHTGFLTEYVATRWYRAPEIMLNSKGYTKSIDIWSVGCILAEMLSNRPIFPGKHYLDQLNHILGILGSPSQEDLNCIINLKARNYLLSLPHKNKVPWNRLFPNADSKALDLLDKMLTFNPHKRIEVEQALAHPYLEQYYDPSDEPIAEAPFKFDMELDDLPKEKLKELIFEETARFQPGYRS

For the compound `CCOc1ccc(C=C2SC(=O)N(CCN)C2=O)cc1` [Compound 76], the “effect on colony formation / cell proliferation (in words)” value in assay [1] is given as “completely inhibited”. In addition, the “reduction in binding affinity compared to wild type ERK2” value at ERK2 T157A is recorded as “approximately 5 fold”. For the same compound, the “inhibition of cell proliferation in SUM-159 (in words)” value in assay [2] is reported as “inhibition of cell proliferation”. In addition, the “inhibition of cell proliferation in HT1080 (in words)” value in assay [3] is listed as “inhibition of cell proliferation”.
